Like-named read-outs stand apart in the source and are kept apart here. Where a SMILES comes first, the peptide text is derived from it.
What was measured:
[1] = tested on: male Wistar rats; assay: Comparison with known active ingredients in male Wistar rats under sodium thiopental anaesthesia, rapid i.v. or 5 min infusion; type: in vivo, rat (male Wistar)
Protocol: In order to compare the activity of the compounds of the present invention to that of the products of the prior art, various doses of known anti-hypertensive, hypotensive and vasoactive drugs were administered to male Wistar rats under general anaesthesia by sodium thiopental (50 mg/kg, i.p.). The administration was effected through "rapid" i.v. route or through intravenous infusion (inf.) for a time of 5 minutes.
The dose of each product is referred to the base, and the volumes injected were of 100 mcl in case of i.v. administration and […] total (0.9% sodium chloride solution) in case of infusion. The various parameters were evaluated in the same way as in the preceding experiments.

[2] = tested on: male Wistar rats
Protocol: In order to check its activity, diguanido-II was dissolved in a 0.9 % sodium chloride solution and administered through "rapid" i.v. route in male Wistar rats, under general anaesthesia obtained by means of 10% ethyl urethan (i ml/hg).
The active ingredients called guanido-III, -IV, -V, as well as agmatine and galegine, were also tested, after having been administered through "rapid" i.v. route in male Wistar rats (weighing average 280±5 g) under general anaesthesia obtained by means of 10% ethyl uretan (1 ml/hg, i.p.). The general experimental conditions were exactly the same as previously mentioned for guanido-I and diguanido-II, so that the cardiovascular and respiratory effects could be compared.
The parameters measured are as follows: systolic and diastolic systemic arterial pressure (AP), heart rate (HR), maximum rate of increase in the left ventricular isovolumetric pressure (dp/dt), respiratory frequency (RF) and tidal volume (TV). The doses (in μg/kg body weight, referred to the active substance) varied from 50 μg/kg to 6,400 μg/kg (ratio=2.0); in some cases higher does have been employed.

[3] = Lethal dose 50 (LD50) through i.p. route in mice; settings: mouse, in vivo, ip
Protocol: The lethal dose 50 (LD50) of guanido-I through i.p. route in mice turned out to be 57 mg±3.6 per kg.
The lethal dose 50 (LD50) of the diguanido-II through i.p. route in mice, turned out to be 7 mg±0.6 per kg.

[4] = 5 mcg/kg, i.v., maximum response
[5] = 0.75 mcg/kg, i.v., maximum response
[6] = 2.5 mg/kg, i.v., maximum response
[7] = 1 mcg/kg, i.v., maximum response
[8] = 2 mg/kg, i.v., maximum response
[9] = 5 mg/kg, inf., maximum response

## NCCc1c[nH]c2ccc(O)cc12 [5-hydroxytriptamine]
[1]; [4]
  Δ AP DIASTOLIC: -39 ± 2 mmHg
  Δ AP SYSTOLIC: -37 ± 3 mmHg
  Δ HR: -12 ± 3 beats/min
  Δ dp/dt: -1410 ± 167 mmHg/sec

## NC(N)=NCCC[C@H](NC(=O)[C@H](Cc1ccccc1)NC(=O)[C@@H]1CCCN1C(=O)[C@H](CO)NC(=O)[C@H](Cc1ccccc1)NC(=O)CNC(=O)[C@@H]1CCCN1C(=O)[C@@H]1CCCN1C(=O)[C@@H](N)CCCN=C(N)N)C(=O)O [Bradykinin] (H-RPPGFSPFR-OH)
[1]; [5]
  Δ AP DIASTOLIC: -18 ± 4 mmHg
  Δ AP SYSTOLIC: -18 ± 3 mmHg
  Δ HR: -11 ± 2 beats/min
  Δ dp/dt: -830 ± 124 mmHg/sec

## Clc1cccc(Cl)c1N=C1NCCN1 [Clonidine]
[1]; rat, in vivo
  general effects on the various haemodynamic parameters (in words): general "depressive" effects
  Δ AP DIASTOLIC: -9 ± 1 mmHg
  Δ AP SYSTOLIC: -15 ± 4 mmHg
  Δ HR: -40 ± 8 beats/min
  Δ dp/dt: -871 ± 74

## N=C(N)NCCN1CCCCCCC1 [Guanetidine]
[1]; rat, in vivo
  Δ HR: -18 ± 6 beats/min
  Δ dp/dt: -863 ± 160

## C[N+](C)(C)CCCCCC[N+](C)(C)C [Hexameton]
[1]; [6]
  Δ AP DIASTOLIC: -34 ± 2 mmHg
  Δ AP SYSTOLIC: -44 ± 2 mmHg
  Δ HR: -48 ± 9 beats/min
  Δ dp/dt: -4040 ± 812 mmHg/sec

## NCCc1c[nH]cn1 [Histamine]
[1]; [4]
  Δ AP DIASTOLIC: -28 ± 3 mmHg
  Δ AP SYSTOLIC: -30 ± 3 mmHg
  Δ HR: -7 ± 1 beats/min
  Δ dp/dt: -1314 ± 180 mmHg/sec

## NC[C@H](O)c1ccc(O)c(O)c1 [Noradrenaline]
[1]; [7]
  Δ AP DIASTOLIC: +31 ± 2 mmHg
  Δ AP SYSTOLIC: +44 ± 3 mmHg
  Δ HR: +14 ± 4 beats/min
  Δ dp/dt: +4314 ± 415 mmHg/sec

## COc1ccc(Cc2nccc3cc(OC)c(OC)cc23)cc1OC [Papaverine]
[1]; [8]
  Δ AP DIASTOLIC: -18 ± 3 mmHg
  Δ AP SYSTOLIC: -23 ± 3 mmHg
  Δ HR: -21 ± 5 beats/min
  Δ dp/dt: -604 ± 102 mmHg/sec
[1]; rat
  general effects on the various haemodynamic parameters (in words): general "depressive" effects

## COC(=O)[C@H]1[C@H]2C[C@@H]3c4[nH]c5cc(OC)ccc5c4CCN3C[C@H]2C[C@@H](OC(=O)c2cc(OC)c(OC)c(OC)c2)[C@@H]1OC [Reserpine]
[1]; [9]
  Δ AP DIASTOLIC: -24 ± 5 mmHg
  Δ AP SYSTOLIC: -31 ± 6 mmHg
  Δ HR: -47 ± 9 beats/min
  Δ dp/dt: -1580 ± 134 mmHg/sec
[1]; rat
  general effects on the various haemodynamic parameters (in words): general "depressive" effects

## COc1ccc(C=CC(=O)NCCCCNC(=N)NCC=C(C)C)cc1OC [guanido-I]
[2]; 50 μg/kg i.v.
  Δ AP DIAST: -5 ± 1 mmHg
  Δ AP SYST: -4 ± 2 mmHg
  Δ HR: +8 ± 3 beats/min
  Δ RF: +6 ± 2 acts/min
  Δ dp/dt: +52 ± 8 mmHg/sec
[2]; 100 μg/kg i.v.
  Δ AP DIAST: -6 ± 2 mmHg
  Δ AP SYST: -6 ± 2 mmHg
  Δ HR: +10 ± 1 beats/min
  Δ RF: +9 ± 4 acts/min
  Δ dp/dt: +141 ± 25 mmHg/sec
[2]; 200 μg/kg i.v.
  Δ AP DIAST: -10 ± 2 mmHg
  Δ AP SYST: -11 ± 3 mmHg
  Δ HR: +13 ± 2 beats/min
  Δ RF: +12 ± 2 acts/min
  Δ dp/dt: +1284 ± 78 mmHg/sec
[2]; 400 μg/kg i.v.
  Δ AP DIAST: -14 ± 3 mmHg
  Δ AP SYST: -15 ± 4 mmHg
  Δ HR: +14 ± 5 beats/min
  Δ RF: +16 ± 3 acts/min
  Δ dp/dt: +1712 ± 107 mmHg/sec
[2]; 800 μg/kg i.v.
  Δ AP DIAST: -15 ± 3 mmHg
  Δ AP SYST: -17 ± 3 mmHg
  Δ HR: +18 ± 4 beats/min
  Δ RF: +25 ± 6 acts/min
  Δ dp/dt: +2140 ± 263 mmHg/sec
[2]; 1600 μg/kg i.v.
  Δ AP DIAST: -18 ± 4 mmHg
  Δ AP SYST: -21 ± 6 mmHg
  Δ HR: +22 ± 3 beats/min
  Δ RF: +23 ± 9 acts/min
  Δ dp/dt: +2996 ± 104 mmHg/sec
[2]; 3200 μg/kg i.v.
  Δ AP DIAST: -29 ± 4 mmHg
  Δ AP SYST: -25 ± 5 mmHg
  Δ HR: +25 ± 8 beats/min
  Δ RF: +26 ± 7 acts/min
  Δ dp/dt: +2984 ± 362 mmHg/sec
[2]; 6400 μg/kg i.v.
  Δ AP DIAST: -29 ± 2 mmHg
  Δ AP SYST: -34 ± 4 mmHg
  Δ HR: +20 ± 4 beats/min
  Δ RF: +29 ± 5 acts/min
  Δ dp/dt: +3074 ± 441 mmHg/sec
[2]; i.v., 50-6400 μg/kg, rat
  effect on AP (in words): lowers the value of AP according to a linear dependence on the dose
  effect on HR, dp/dt and RF (in words): causes an increase in the values of HR, dp/dt and RF
[2]; i.v., rat
  cardiovascular and respiratory effects (in words): giving hypotensive responses while increasing heart rate and inotropism as well as respiratory rate
  changes in the tidal volume (TV) (in words): a linear increase has been observed with the doses
  correlation with peripheral adrenergic receptors (α1-α2; β1-β2) (in words): do not seem to be correlated to significative actions of the active ingredient at the level of the peripheral adrenergic receptors
[3]
  LD50: 57 mg/kg

## COc1ccc(C=CC(=O)NCCCCNC(=N)N)cc1OC [guanido-V, 4-[(3,4-dimethoxycinnamoyl)amino]butylguanldine]
[2]; 200 μg/kg i.v.
  Δ AP DIAST: 0 mmHg
  Δ AP SYST: 0 mmHg
  Δ HR: 0 beats/min
  Δ RF: -7 ± 2%
  Δ TV: -14 ± 4%
  Δ dp/dt: -392 ± 21 mmHg/sec
[2]; 400 μg/kg i.v.
  Δ AP DIAST: -3 ± 1 mmHg
  Δ AP SYST: -4 ± 2 mmHg
  Δ HR: 0 beats/min
  Δ RF: -3%
  Δ TV: -13 ± 2%
  Δ dp/dt: -384 ± 39 mmHg/sec
[2]; 800 μg/kg i.v.
  Δ AP DIAST: -6 ± 2 mmHg
  Δ AP SYST: -5 ± 2 mmHg
  Δ HR: 0 beats/min
  Δ RF: -3 ± 2%
  Δ TV: +12 ± 4%
  Δ dp/dt: -430 ± 43 mmHg/sec
[2]; 1600 μg/kg i.v.
  Δ AP DIAST: -6 ± 2 mmHg
  Δ AP SYST: -8 ± 3 mmHg
  Δ HR: 0 beats/min
  Δ RF: -4 ± 1%
  Δ TV: +11 ± 3%
  Δ dp/dt: -642 ± 76 mmHg/sec
[2]; 3200 μg/kg i.v.
  Δ AP DIAST: -9 ± 3 mmHg
  Δ AP SYST: -10 ± 4 mmHg
  Δ HR: 0 beats/min
  Δ RF: +1 ± 1%
  Δ TV: +20 ± 6%
  Δ dp/dt: +684 ± 38 mmHg/sec
[2]; 6400 μg/kg i.v.
  Δ AP DIAST: -15 ± 4 mmHg
  Δ AP SYST: -11 ± 3 mmHg
  Δ HR: -14 ± 6 beats/min
  Δ RF: +10 ± 4%
  Δ TV: +22 ± 7%
  Δ dp/dt: +2354 ± 214 mmHg/sec
[2]; 12800 μg/kg i.v.
  Δ AP DIAST: -28 ± 4 mmHg
  Δ AP SYST: -23 ± 5 mmHg
  Δ HR: -49 ± 8 beats/min
  Δ RF: +11 ± 3%
  Δ TV: +74 ± 8%
  Δ dp/dt: +2996 ± 170 mmHg/sec
[2]; 102400 μg/kg i.v.
  Δ AP DIAST: -30 ± 5 mmHg
  Δ AP SYST: -24 ± 4 mmHg
  Δ HR: -67 ± 11 beats/min
  Δ RF: +6 ± 4%
  Δ TV: +79 ± 12%
  Δ dp/dt: +3040 ± 224 mmHg/sec
[2]; i.v., rat
  cardiovascular and respiratory effects (in words): systolic and diastolic arterial hypotension, more evident from the dose of 3,200 μg/kg on; bradycardia was observed starting from the dose of 6,400 μg/kg, a slight reduction of dp/dt and RF appeared up to the highest doses; TV showed a similar trend

Reference: patent publication US5059624A, “Guanidine derivatives having hypotensive activity, composition containing them and process for obtaining them” (Consiglio Nazionale Delle Ricerche, priority 1988, dated 1991)
